Tests used:
Type in all cases: cell-based
[1] = test system: NCI-H441 human lung adenocarcinoma cells; assay: CELLTITER-GLO cell viability assay, NCI-H441 cells (same method)
Method: (§1) In the examples below, the product sources for the SKOV-3 ovarian cancer cells, the NCI-H1993 non-small cell human lung cancer cells, and the NCI-H441 human lung adenocarcinoma cells are as follows: In example 1, CELLTITER-GLO was used to test levonorgestrel against ovarian cancer. c) The SKOV-3 96-well cell plates prepared in step 1 were removed from the incubator, and 10 μl of the cell culture media (10× final concentration) with varying drug concentrations as described in b) above was added to the SKOV-3 96-well cell culture plate row-by-row as shown in FIG. 1. It was placed into a CO2 incubator at 37° C. for 72 hours, obtaining the SKOV-3 96-well drug screening plate. The final concentrations (μM) of the analyte drug in wells 2-10 in FIG. 1 are, in order: 100, 31.64557, 10.01442, 3.16912, 1.002886, 0.317369, 0.100433, 0.031783, 0.010058; B. CELLTITER-GLO Luminescent Cell Viability Assay System c) 100 μl of CellTiter-Glo reagent (prepared as described in 1 above) was added to all drug screening plates and mixed evenly. f) An EnSpire multi-function plate reader was used at 570 nm to read the luminescent signals. The same method was used to test levonorgestrel's action on the IC50 values of NCI-H1993 human lung non-small cell carcinoma cells and NCI-H441 human lung adenocarcinoma cells; results are shown in Table 1.

[2] = test system: NCI-H1993 human lung non-small cell carcinoma cells; assay: CELLTITER-GLO cell viability assay, NCI-H1993 cells (same method)
Method: as §1

[3] = test system: SKOV-3 ovarian cancer cells; assay: CELLTITER-GLO Luminescent Cell Viability Assay, SKOV-3 ovarian cancer cells
From the text: In example 1, CELLTITER-GLO was used to test levonorgestrel against ovarian cancer. m) A cell counter was used to count the number of suspended cells and adjust the cell suspension to an appropriate density in the plate to carry out cell plating experiments. n) SKOV-3 cells were handled as described above, and a SKOV-3 96-well cell culture plate was obtained. The complete medium for SKOV-3 cells was McCOY'S 5A (a live product), Cat #16600082, with a cells/well density of 12000. 2. The drug analyte levonorgestrel was prepared and administered (200× final concentration): a) DMSO was used to dilute the analyte levonorgestrel to 20 mM for use. b) 79 μL of the 20 mM analyte prepared in step a) was added to the first well in the first row of the dilution plate, and then 54 μL of DMSO solution was added to the second through ninth wells of the first row. […] The final concentrations (μM) of the analyte drug in wells 2-10 in FIG. 1 are, in order: 100, 31.64557, 10.01442, 3.16912, 1.002886, 0.317369, 0.100433, 0.031783, 0.010058; B. CELLTITER-GLO Luminescent Cell Viability Assay System a) Before testing, the SKOV-3 96-well drug screening plate described in 3 above was stabilized to room temperature for 20-30 minutes. c) 100 μl of CellTiter-Glo reagent (prepared as described in 1 above) was added to all drug screening plates and mixed evenly. d) It was thoroughly oscillated in a 96-well microplate oscillator for 2 minutes to allow the cells to undergo full lysis. e) It was stored away from light at room temperature for 15 minutes before carrying out luminescent signal detection to ensure signal stability. f) An EnSpire multi-function plate reader was used at 570 nm to read the luminescent signals. g) Data was processed and analyzed.

In the case of `C#C[C@]1(O)CC[C@H]2[C@@H]3CCC4=CC(=O)CC[C@@H]4[C@H]3CC[C@@]21CC` [levonorgestrel], the IC50 [1] is reported as ≥ 100 µM, the IC50 [2] is reported as ≥ 100 µM and the IC50 ([3]; Homo sapiens, SK-OV-3, SKOV-3 cells, 72 hours, CellTiter-Glo) is reported as 3.34 µM. For the same compound, the EC50 ([3]; Homo sapiens, SK-OV-3, SKOV-3 cells, 72 hours, CellTiter-Glo, FIG. 2) was 3.08 µM and the “effect on the proliferation of ovarian cancer cells” value ([3]; compared with NCI-H441 and NCI-H1993 lung cancer cells) was “specific inhibitory effect”.

From patent US10792291B2, “Applications for levonorgestrel in preparing anti-ovarian cancer products” (SHANGHAI JIAO TONG UNIVERSITY, priority 2015, dated 2020)
